{"source": "paper PMC6540285", "about": "“Evaluation of Protein Kinase Inhibitors with PLK4 Cross-Over Potential in a Pre-Clinical Model of Cancer” (International Journal of Molecular Sciences, 2019)", "key": {"FLT4 (VEGFR3)": {"target": "FLT4 (VEGFR3) (Homo sapiens, UniProt P35916)", "assay": "SelectScreen kinase profiling, ZLYTE", "format": "biochemical"}, "NEK1": {"target": "NEK1 (Homo sapiens, UniProt Q96PY6)", "assay": "SelectScreen kinase profiling, ZLYTE", "format": "biochemical", "details": "NEK1, 10 µM"}, "PIK3CG (p110 gamma)": {"target": "PIK3CG (p110 gamma) (Homo sapiens, UniProt P48736)", "assay": "SelectScreen kinase profiling, Adapta", "format": "biochemical"}, "MAP4K1 (HPK1)": {"target": "MAP4K1 (HPK1) (Homo sapiens, UniProt Q92918)", "assay": "SelectScreen kinase profiling, LanthaScreen binding"}, "PDGFRA V561D": {"target": "PDGFRA V561D (Homo sapiens, UniProt P16234, V561D)", "assay": "SelectScreen kinase profiling, ZLYTE", "format": "biochemical"}, "HIPK4": {"target": "HIPK4 (Homo sapiens, UniProt Q8NE63)", "assay": "SelectScreen kinase profiling, ZLYTE", "format": "biochemical", "details": "HIPK4, 10 µM"}, "ACVR1 (ALK2)": {"target": "ACVR1 (ALK2) (Homo sapiens, UniProt Q04771)", "assay": "SelectScreen kinase profiling, LanthaScreen binding"}, "CDKL5": {"target": "CDKL5 (Homo sapiens, UniProt O76039)", "assay": "SelectScreen kinase profiling, ZLYTE", "format": "biochemical", "details": "CDKL5, 10 µM"}, "CDK9 (Inactive)": {"target": "CDK9 (Inactive) (Homo sapiens, UniProt P50750)", "sequence (P50750 whole entry)": "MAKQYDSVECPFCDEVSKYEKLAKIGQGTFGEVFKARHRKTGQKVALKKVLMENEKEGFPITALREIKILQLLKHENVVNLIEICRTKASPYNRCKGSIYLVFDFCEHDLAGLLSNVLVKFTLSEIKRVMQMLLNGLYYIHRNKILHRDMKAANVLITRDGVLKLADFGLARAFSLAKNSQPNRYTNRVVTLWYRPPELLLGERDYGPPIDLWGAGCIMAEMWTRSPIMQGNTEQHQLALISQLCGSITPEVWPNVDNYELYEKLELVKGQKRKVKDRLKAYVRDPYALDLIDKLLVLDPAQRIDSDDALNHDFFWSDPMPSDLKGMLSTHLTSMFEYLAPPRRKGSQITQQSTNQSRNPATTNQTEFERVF", "assay": "SelectScreen kinase profiling, LanthaScreen binding"}, "TGFBR1 (ALK5)": {"target": "TGFBR1 (ALK5) (Homo sapiens, UniProt P36897)", "assay": "SelectScreen kinase profiling, LanthaScreen binding", "from_the_text": "Kinase Technology % Inhibition Avg Kinase Technology % Inhibition Avg"}, "LYN A": {"target": "LYN A (Homo sapiens, UniProt P07948)", "assay": "SelectScreen kinase profiling, ZLYTE", "format": "biochemical"}, "PDGFRA (PDGFR alpha)": {"target": "PDGFRA (PDGFR alpha) (Homo sapiens, UniProt P16234)", "assay": "SelectScreen kinase profiling, ZLYTE", "format": "biochemical"}, "CDK9/cyclin K": {"target": "CDK9/cyclin K (Homo sapiens, UniProt P50750)", "assay": "SelectScreen kinase profiling, LanthaScreen binding"}, "HIPK1 (Myak)": {"target": "HIPK1 (Myak) (Homo sapiens, UniProt Q86Z02)", "sequence (Q86Z02 whole entry)": "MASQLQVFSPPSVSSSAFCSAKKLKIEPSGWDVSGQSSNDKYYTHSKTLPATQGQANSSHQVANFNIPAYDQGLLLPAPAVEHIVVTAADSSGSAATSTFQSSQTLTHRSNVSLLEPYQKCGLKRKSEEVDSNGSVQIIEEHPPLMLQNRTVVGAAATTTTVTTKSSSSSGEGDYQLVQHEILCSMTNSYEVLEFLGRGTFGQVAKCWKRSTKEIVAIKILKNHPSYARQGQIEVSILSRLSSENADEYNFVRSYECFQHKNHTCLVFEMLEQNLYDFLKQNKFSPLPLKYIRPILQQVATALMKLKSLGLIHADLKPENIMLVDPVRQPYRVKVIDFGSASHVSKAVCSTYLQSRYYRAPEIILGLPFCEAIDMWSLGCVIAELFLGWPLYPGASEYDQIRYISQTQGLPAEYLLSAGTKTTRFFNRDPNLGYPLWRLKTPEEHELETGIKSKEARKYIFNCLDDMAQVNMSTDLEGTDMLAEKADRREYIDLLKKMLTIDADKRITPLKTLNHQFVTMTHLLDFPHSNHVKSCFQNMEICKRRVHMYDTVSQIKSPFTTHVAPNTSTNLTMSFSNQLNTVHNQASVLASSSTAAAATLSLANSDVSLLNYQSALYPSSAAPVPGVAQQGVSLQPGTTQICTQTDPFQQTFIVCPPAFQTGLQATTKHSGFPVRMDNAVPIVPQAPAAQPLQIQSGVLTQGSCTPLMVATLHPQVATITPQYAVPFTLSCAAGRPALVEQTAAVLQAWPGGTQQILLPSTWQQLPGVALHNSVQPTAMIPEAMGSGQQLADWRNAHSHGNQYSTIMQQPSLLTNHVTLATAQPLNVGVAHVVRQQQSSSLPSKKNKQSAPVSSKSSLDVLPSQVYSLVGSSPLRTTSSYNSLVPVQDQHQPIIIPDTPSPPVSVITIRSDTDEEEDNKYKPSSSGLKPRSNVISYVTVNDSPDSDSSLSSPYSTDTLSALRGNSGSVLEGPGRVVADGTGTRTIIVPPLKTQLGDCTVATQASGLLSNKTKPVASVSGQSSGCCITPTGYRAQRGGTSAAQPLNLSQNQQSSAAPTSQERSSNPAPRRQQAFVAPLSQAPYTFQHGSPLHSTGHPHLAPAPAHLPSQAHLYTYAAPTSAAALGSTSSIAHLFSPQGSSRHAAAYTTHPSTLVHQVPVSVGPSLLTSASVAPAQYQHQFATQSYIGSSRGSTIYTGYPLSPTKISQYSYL", "assay": "SelectScreen kinase profiling, ZLYTE", "format": "biochemical"}, "PRKCQ (PKC theta)": {"target": "PRKCQ (PKC theta) (Homo sapiens, UniProt Q04759)", "assay": "SelectScreen kinase profiling, ZLYTE", "format": "biochemical"}, "ACVR1 (ALK2) R206H": {"target": "ACVR1 (ALK2) R206H (Homo sapiens, UniProt Q04771, R206H)", "assay": "SelectScreen kinase profiling, LanthaScreen binding"}, "LATS2": {"target": "LATS2 (Homo sapiens, UniProt Q9NRM7)", "sequence (Q9NRM7 whole entry)": "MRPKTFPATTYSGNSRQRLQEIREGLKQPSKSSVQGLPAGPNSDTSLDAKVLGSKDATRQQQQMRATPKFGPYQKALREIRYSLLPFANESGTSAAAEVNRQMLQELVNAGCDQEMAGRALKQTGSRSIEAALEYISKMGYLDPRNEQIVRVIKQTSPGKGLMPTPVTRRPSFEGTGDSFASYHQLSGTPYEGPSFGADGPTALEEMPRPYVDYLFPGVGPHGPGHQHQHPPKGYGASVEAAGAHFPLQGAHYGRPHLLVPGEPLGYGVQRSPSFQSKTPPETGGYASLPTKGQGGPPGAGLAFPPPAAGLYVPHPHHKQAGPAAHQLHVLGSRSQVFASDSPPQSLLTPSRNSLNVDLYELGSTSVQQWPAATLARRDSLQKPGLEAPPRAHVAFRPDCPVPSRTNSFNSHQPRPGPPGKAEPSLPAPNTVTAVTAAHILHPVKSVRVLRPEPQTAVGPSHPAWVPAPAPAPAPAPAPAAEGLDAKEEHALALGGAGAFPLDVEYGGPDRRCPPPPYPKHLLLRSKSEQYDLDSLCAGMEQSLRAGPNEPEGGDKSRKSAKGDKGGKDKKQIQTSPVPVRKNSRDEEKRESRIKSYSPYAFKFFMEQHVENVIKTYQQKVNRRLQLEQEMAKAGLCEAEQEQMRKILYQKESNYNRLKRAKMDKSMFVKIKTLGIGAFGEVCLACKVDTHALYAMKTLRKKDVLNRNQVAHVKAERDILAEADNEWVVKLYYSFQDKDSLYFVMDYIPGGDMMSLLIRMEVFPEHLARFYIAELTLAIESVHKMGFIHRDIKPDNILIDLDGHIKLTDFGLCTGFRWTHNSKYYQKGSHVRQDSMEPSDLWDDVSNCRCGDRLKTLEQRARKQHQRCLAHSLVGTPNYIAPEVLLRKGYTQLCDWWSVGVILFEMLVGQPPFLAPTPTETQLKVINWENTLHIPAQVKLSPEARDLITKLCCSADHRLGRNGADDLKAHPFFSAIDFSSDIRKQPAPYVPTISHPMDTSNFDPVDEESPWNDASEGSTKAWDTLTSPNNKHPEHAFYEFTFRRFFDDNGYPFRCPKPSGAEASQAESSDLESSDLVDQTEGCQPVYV", "assay": "SelectScreen kinase profiling, LanthaScreen binding", "details": "LATS2, 10 µM"}, "MAP4K3 (GLK)": {"target": "MAP4K3 (GLK) (Homo sapiens, UniProt Q8IVH8)", "assay": "SelectScreen kinase profiling, LanthaScreen binding"}, "MAPK15 (ERK7)": {"target": "MAPK15 (ERK7) (Homo sapiens, UniProt Q8TD08)", "assay": "SelectScreen kinase profiling, LanthaScreen binding"}, "PIM1": {"target": "PIM1 (Homo sapiens, UniProt P11309)", "assay": "SelectScreen kinase profiling, ZLYTE", "format": "biochemical", "details": "PIM1, 10 µM"}, "CSF1R (FMS)": {"target": "CSF1R (FMS) (Homo sapiens, UniProt P07333)", "assay": "SelectScreen kinase profiling, ZLYTE", "format": "biochemical"}, "RET V804E": {"target": "RET V804E (Homo sapiens, UniProt P07949, V804E)", "assay": "SelectScreen kinase profiling, ZLYTE", "format": "biochemical"}, "CDK5/p25": {"target": "CDK5/p25 (Homo sapiens, UniProt Q00535)", "assay": "SelectScreen kinase profiling, ZLYTE", "format": "biochemical", "details": "CDK5/p25, 10 µM"}, "MAP2K6 (MKK6)": {"target": "MAP2K6 (MKK6) (Homo sapiens, UniProt P52564)", "sequence (P52564 whole entry)": "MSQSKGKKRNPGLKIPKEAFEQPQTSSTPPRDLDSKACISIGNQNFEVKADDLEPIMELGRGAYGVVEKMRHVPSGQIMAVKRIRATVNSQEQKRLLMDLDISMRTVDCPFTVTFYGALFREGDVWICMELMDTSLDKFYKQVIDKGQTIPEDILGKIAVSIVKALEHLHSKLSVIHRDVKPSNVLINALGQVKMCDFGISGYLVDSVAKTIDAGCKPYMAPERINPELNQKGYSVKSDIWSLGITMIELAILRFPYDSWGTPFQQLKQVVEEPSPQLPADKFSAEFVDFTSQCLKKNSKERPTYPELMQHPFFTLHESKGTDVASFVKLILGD", "assay": "SelectScreen kinase profiling, LanthaScreen binding"}, "MET D1228H": {"target": "MET D1228H (Homo sapiens, UniProt P08581, D1228H)", "sequence (P08581 25-1390 D1228H)": "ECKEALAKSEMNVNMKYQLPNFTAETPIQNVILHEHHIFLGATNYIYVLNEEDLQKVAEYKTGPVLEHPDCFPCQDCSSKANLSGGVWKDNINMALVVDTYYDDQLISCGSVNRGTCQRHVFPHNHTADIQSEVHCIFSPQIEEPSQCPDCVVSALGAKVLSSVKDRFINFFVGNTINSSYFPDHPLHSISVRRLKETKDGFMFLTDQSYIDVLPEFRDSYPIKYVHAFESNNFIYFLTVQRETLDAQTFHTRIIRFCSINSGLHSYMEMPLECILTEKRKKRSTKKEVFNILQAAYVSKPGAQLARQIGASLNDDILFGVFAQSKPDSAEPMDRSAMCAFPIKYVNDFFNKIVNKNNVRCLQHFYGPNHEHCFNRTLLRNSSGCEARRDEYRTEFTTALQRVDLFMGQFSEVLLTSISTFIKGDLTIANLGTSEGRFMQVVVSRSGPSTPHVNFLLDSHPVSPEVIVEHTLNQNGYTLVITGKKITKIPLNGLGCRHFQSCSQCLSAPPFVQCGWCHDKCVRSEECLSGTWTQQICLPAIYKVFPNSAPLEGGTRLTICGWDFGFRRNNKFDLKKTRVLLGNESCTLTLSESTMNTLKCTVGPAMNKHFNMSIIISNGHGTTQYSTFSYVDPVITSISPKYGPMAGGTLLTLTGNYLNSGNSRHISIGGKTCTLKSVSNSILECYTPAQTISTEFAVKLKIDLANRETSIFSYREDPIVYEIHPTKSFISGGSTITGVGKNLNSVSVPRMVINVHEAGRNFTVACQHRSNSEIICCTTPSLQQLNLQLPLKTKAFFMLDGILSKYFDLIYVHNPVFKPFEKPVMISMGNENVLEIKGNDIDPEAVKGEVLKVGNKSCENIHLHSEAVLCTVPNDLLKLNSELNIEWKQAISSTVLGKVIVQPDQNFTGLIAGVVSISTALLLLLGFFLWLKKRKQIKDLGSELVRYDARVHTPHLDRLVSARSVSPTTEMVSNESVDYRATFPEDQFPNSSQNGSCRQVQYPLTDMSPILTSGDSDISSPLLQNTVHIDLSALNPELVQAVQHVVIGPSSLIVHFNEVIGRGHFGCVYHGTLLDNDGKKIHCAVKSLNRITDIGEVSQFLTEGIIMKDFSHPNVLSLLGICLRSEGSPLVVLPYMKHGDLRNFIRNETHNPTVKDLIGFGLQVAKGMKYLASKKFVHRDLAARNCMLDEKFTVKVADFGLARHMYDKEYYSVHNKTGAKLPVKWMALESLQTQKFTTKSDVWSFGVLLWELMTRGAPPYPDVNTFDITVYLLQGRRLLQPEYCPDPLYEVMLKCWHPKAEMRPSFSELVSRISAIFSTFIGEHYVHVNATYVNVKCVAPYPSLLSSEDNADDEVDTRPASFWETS", "assay": "SelectScreen kinase profiling, LanthaScreen binding"}, "CSK": {"target": "CSK (Homo sapiens, UniProt P41240)", "assay": "SelectScreen kinase profiling, ZLYTE", "format": "biochemical"}, "RPS6KA2 (RSK3)": {"target": "RPS6KA2 (RSK3) (Homo sapiens, UniProt Q15349)", "assay": "SelectScreen kinase profiling, ZLYTE", "format": "biochemical"}, "CSNK2A2 (CK2 alpha 2)": {"target": "CSNK2A2 (CK2 alpha 2) (Homo sapiens, UniProt P19784)", "assay": "SelectScreen kinase profiling, ZLYTE", "format": "biochemical"}, "ALK": {"target": "ALK (Homo sapiens, UniProt Q9UM73)", "assay": "SelectScreen kinase profiling, ZLYTE", "format": "biochemical"}, "MAP4K4 (HGK)": {"target": "MAP4K4 (HGK) (Homo sapiens, UniProt O95819)", "assay": "SelectScreen kinase profiling, ZLYTE", "format": "biochemical"}, "P450 2B6": {"target": "P450 2B6 (Homo sapiens, UniProt P20813)", "assay": "SelectScreen P450 Vivid biochemical assay", "details": "10000nM; substrate BOMCC"}, "SRPK2": {"target": "SRPK2 (Homo sapiens, UniProt P78362)", "assay": "SelectScreen kinase profiling, ZLYTE", "format": "biochemical", "details": "SRPK2, 10 µM"}, "STK22B (TSSK2)": {"target": "STK22B (TSSK2) (Homo sapiens, UniProt Q96PF2)", "assay": "SelectScreen kinase profiling, ZLYTE", "format": "biochemical"}, "MAPK3 (ERK1)": {"target": "MAPK3 (ERK1) (Homo sapiens, UniProt P27361)", "assay": "SelectScreen kinase profiling, ZLYTE", "format": "biochemical"}, "ABL1 Y253F": {"target": "ABL1 Y253F (Homo sapiens, UniProt P00519, Y253F)", "assay": "SelectScreen kinase profiling, ZLYTE", "format": "biochemical"}, "MAP2K2 (MEK2)": {"target": "MAP2K2 (MEK2) (Homo sapiens, UniProt P36507)", "assay": "SelectScreen kinase profiling, LanthaScreen binding"}, "MAPK10 (JNK3) [1]": {"target": "T1, MAPK10 (JNK3) (Homo sapiens, UniProt P53779)", "T1 sequence (P53779 whole entry)": "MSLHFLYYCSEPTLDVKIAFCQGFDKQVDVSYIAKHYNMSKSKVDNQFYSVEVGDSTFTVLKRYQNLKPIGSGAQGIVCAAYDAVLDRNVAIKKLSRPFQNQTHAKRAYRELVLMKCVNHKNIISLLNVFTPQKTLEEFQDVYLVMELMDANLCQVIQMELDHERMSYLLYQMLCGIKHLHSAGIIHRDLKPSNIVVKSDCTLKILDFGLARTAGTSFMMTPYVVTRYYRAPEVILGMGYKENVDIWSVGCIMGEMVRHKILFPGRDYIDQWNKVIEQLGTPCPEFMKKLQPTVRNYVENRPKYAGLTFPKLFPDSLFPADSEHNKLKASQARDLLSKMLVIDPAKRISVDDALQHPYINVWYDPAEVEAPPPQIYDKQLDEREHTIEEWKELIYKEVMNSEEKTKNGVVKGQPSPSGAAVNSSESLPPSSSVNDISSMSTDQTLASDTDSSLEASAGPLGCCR", "assay": "SelectScreen kinase profiling, ZLYTE", "format": "biochemical"}, "HCK": {"target": "HCK (Homo sapiens, UniProt P08631)", "assay": "SelectScreen kinase profiling, ZLYTE", "format": "biochemical"}, "CYP2D6": {"target": "CYP2D6 (Homo sapiens, UniProt P10635)"}, "MAPK10 (JNK3) [2]": {"target": "T1, MAPK10 (JNK3)", "assay": "SelectScreen kinase profiling, LanthaScreen binding"}}, "note": "pIC50: −log10 of the molar value.", "data": [{"compound": "O=C(c1ccc(/C=C/c2n[nH]c3ccccc23)cc1)N1CCNCC1", "note": "[KW-2449]", "values": [{"measurement": "inhibition at 10 µM", "setting": "FLT4 (VEGFR3)", "result": 95, "unit": "%"}, {"measurement": "inhibition at 10 µM", "setting": "NEK1", "result": 67, "unit": "%"}, {"measurement": "inhibition at 10 µM", "setting": "PIK3CG (p110 gamma)", "result": 8, "unit": "%"}, {"measurement": "inhibition at 10 µM", "setting": "MAP4K1 (HPK1)", "result": 76, "unit": "%"}, {"measurement": "inhibition at 10 µM", "setting": "PDGFRA V561D", "result": 97, "unit": "%"}, {"measurement": "inhibition at 10 µM", "setting": "HIPK4", "result": 85, "unit": "%"}, {"measurement": "inhibition at 10 µM", "setting": "ACVR1 (ALK2)", "result": 94, "unit": "%"}, {"measurement": "inhibition at 10 µM", "setting": "CDKL5", "result": 56, "unit": "%"}, {"measurement": "inhibition at 10 µM", "setting": "CDK9 (Inactive)", "result": 2, "unit": "%"}, {"measurement": "inhibition at 10 µM", "setting": "TGFBR1 (ALK5)", "result": 85, "unit": "%"}, {"measurement": "inhibition at 10 µM", "setting": "LYN A", "result": 89, "unit": "%"}, {"measurement": "inhibition at 10 µM", "setting": "PDGFRA (PDGFR alpha)", "result": 91, "unit": "%"}, {"measurement": "inhibition at 10 µM", "setting": "CDK9/cyclin K", "result": 38, "unit": "%"}, {"measurement": "inhibition at 10 µM", "setting": "HIPK1 (Myak)", "result": 70, "unit": "%"}, {"measurement": "inhibition at 10 µM", "setting": "PRKCQ (PKC theta)", "result": 32, "unit": "%"}, {"measurement": "inhibition at 10 µM", "setting": "ACVR1 (ALK2) R206H", "result": 69, "unit": "%"}, {"measurement": "inhibition at 10 µM", "setting": "LATS2", "result": 68, "unit": "%"}, {"measurement": "inhibition at 10 µM", "setting": "MAP4K3 (GLK)", "result": 72, "unit": "%"}, {"measurement": "inhibition at 10 µM", "setting": "MAPK15 (ERK7)", "result": -49, "unit": "%"}, {"measurement": "inhibition at 10 µM", "setting": "PIM1", "result": 42, "unit": "%"}, {"measurement": "inhibition at 10 µM", "setting": "CSF1R (FMS)", "result": 99, "unit": "%"}, {"measurement": "inhibition at 10 µM", "setting": "RET V804E", "result": 94, "unit": "%"}, {"measurement": "inhibition at 10 µM", "setting": "CDK5/p25", "result": 97, "unit": "%"}, {"measurement": "inhibition at 10 µM", "setting": "MAP2K6 (MKK6)", "result": 56, "unit": "%"}, {"measurement": "inhibition at 10 µM", "setting": "MET D1228H", "result": 75, "unit": "%"}, {"measurement": "inhibition at 10 µM", "setting": "CSK", "result": 71, "unit": "%"}, {"measurement": "inhibition at 10 µM", "setting": "RPS6KA2 (RSK3)", "result": 96, "unit": "%"}, {"measurement": "inhibition at 10 µM", "setting": "CSNK2A2 (CK2 alpha 2)", "result": 38, "unit": "%"}, {"measurement": "inhibition at 10 µM", "setting": "ALK", "result": 101, "unit": "%"}, {"measurement": "inhibition at 10 µM", "setting": "MAP4K4 (HGK)", "result": 98, "unit": "%"}, {"measurement": "% Inhibition 2B6 BOMCC", "setting": "P450 2B6", "result": 48, "unit": "%"}, {"measurement": "inhibition at 10 µM", "setting": "SRPK2", "result": 32, "unit": "%"}, {"measurement": "inhibition at 10 µM", "setting": "STK22B (TSSK2)", "result": 74, "unit": "%"}, {"measurement": "inhibition at 10 µM", "setting": "MAPK3 (ERK1)", "result": 41, "unit": "%"}, {"measurement": "inhibition at 10 µM", "setting": "ABL1 Y253F", "result": 100, "unit": "%"}, {"measurement": "inhibition at 10 µM", "setting": "MAP2K2 (MEK2)", "result": 73, "unit": "%"}, {"measurement": "inhibition at 10 µM", "setting": "MAPK10 (JNK3) [1]", "result": 59, "unit": "%"}, {"measurement": "inhibition at 10 µM", "setting": "HCK", "result": 90, "unit": "%"}, {"measurement": "pIC50", "setting": "CYP2D6", "result": "< 5.00"}, {"measurement": "inhibition at 10 µM", "setting": "MAPK10 (JNK3) [2]", "result": 88, "unit": "%"}]}]}
